From US7906655B2, “Hepatitis C virus inhibitors” (Bristol-Myers Squibb Company, priority 2008, dated 2011)

Test system: HCV 1b genotype
Test: HCV Replicon assay (HCV-neo replicon cells, wild-type)
Format: cell-based
Details: HCV 1b genotype replicon; class symbols
Method in brief: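 Assay used wild-type HCV genotype 1b replicon cells carrying neo, with luciferase reporter read-outs in some formats.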

Row | Structure (SMILES) | EC50
1 | COC(=O)N[C@@H](C(=O)N1C2C[C@@H]2C[C@H]1c1nc2cc(-c3ccc(-c4ccc5[nH]c([C@@H]6C[C@H]7CC7N6C(=O)[C@H](NC(=O)OC)c6ccccc6)nc5c4)cc3)ccc2[nH]1)c1ccccc1 (single isomer, unassigned) [Example M46.2] | < 4.57 nM
2 | C[C@@](O)(C(=O)N1CCC[C@H]1c1nc2cc(C#Cc3ccc4[nH]c([C@@H]5CCCN5C(=O)[C@@](C)(O)c5ccccc5)nc4c3)ccc2[nH]1)c1ccccc1 [Example M16] | < 4.57 nM

Same assay, conditions: Hepatitis C virus, HCV 1b genotype replicon; class symbols

Row | Structure (SMILES) | EC50
3 | O=C(Cc1ccccc1)N1CCC[C@H]1c1nc2cc(C#CC#Cc3ccc4[nH]c([C@@H]5CCCN5C(=O)Cc5ccccc5)nc4c3)ccc2[nH]1 [Example M57, 5,5′-(1,3-butadiyne-1,4-diyl)bis(2-((2S)-1-(phenylacetyl)-2-pyrrolidinyl)-1H-benzimidazole)] | < 4.57 nM
4 | CC(=O)N[C@@H](C(=O)N1CCC[C@H]1c1nc2cc(C#Cc3ccc4nc([C@@H]5CCCN5C(=O)[C@H](NC(C)=O)c5ccccc5)[nH]c4c3)ccc2[nH]1)c1ccccc1 [Example M21, N-((1R)-2-((2S)-2-(5-((2-((2S)-1-((2R)-2-acetamido-2-phenylacetyl)-2-pyrrolidinyl)-1H-benzimidazol-6-yl)ethynyl)-1H-benzimidazol-2-yl)-1-pyrrolidinyl)-2-oxo-1-phenylethyl)acetamide] | < 4.57 nM
5 | COC(=O)N[C@@H](C)C(=O)N1CCC[C@H]1c1nc2cc(-c3cnc(-c4cccc5[nH]c([C@@H]6CCCN6C(=O)[C@H](C)NC(=O)OC)nc45)o3)ccc2[nH]1 [Example J8, methyl ((1S)-2-((2S)-2-(5-(2-(2-((2S)-1-(N-(methoxy-carbonyl)-L-alanyl)-2-pyrrolidinyl)-1H-benzimidazol-4-yl)-1,3-oxazol-5-yl)-1H-benzimidazol-2-yl)-1-pyrrolidinyl)-1-methyl-2-oxoethyl) carbamate] | < 4.57 nM
6 | COC(=O)N[C@H](C(=O)N1CCC[C@H]1c1nc2cc(Oc3ccc(-c4ccc5[nH]c([C@@H]6CCCN6C(=O)[C@@H](NC(=O)OC)C(C)C)nc5c4)cc3)ccc2[nH]1)C(C)C [Example V12, Methyl((1S)-1-(((2S)-2-(5-(4-(2-((2S)-1-((2S)-2-((methoxycarbonyl)amino)-3-methylbutanoyl)-2-pyrrolidinyl)-1H-benzimidazol-5-yl)phenoxy)-1H-benzimidazol-2-yl)-1-pyrrolidinyl)carbonyl)-2-methylpropyl)carbamate] | < 4.57 nM
7 | CC(=O)N1CCC[C@H]1c1nc2ccc(C#Cc3ccc4[nH]c([C@@H]5CCCN5C(=O)Cc5cccs5)nc4c3)cc2[nH]1 [Example M54.23, 5-((2-((2S)-1-acetyl-2-pyrrolidinyl)-1H-benzimidazol-6-yl)ethynyl)-2-((2S)-1-(2-thienylacetyl)-2-pyrrolidinyl)-1H-benzimidazole] | 4.57 to 99 nM
8 | C[C@H](NC(=O)[C@@H](c1ccccc1)N(C)C)c1nc2cc(C#Cc3ccc4nc([C@H](C)NC(=O)[C@@H](c5ccccc5)N(C)C)[nH]c4c3)ccc2[nH]1 [Example M29, (2R)-2-(dimethylamino)-N-((1S)-1-(5-((2-((1S)-1-(((2R)-2-(dimethylamino)-2-phenylacetyl)amino)ethyl)-1H-benzimidazol-6-yl)ethynyl)-1H-benzimidazol-2-yl)ethyl)-2-phenylacetamide] | < 4.57 nM
9 | O=CN[C@@H](C(=O)N1CCC[C@H]1c1nc2cc(C#Cc3ccc4[nH]c([C@@H]5CCCN5C(=O)[C@H](NC=O)c5ccccc5)nc4c3)ccc2[nH]1)c1ccccc1 [Example M20, N,N′-(1,2-ethynediylbis(1H-benzimidazole-5,2-diyl(2S)-2,1-pyrrolidinediyl((1R)-2-oxo-1-phenyl-2,1-ethanediyl)))diformamide] | < 4.57 nM
10 | CC(=O)N[C@H](C(=O)N1CCC[C@H]1c1nc2cc(-c3cnc(-c4cccc5[nH]c([C@@H]6CCCN6C(=O)[C@@H](c6ccccc6)N(C)C)nc45)o3)ccc2[nH]1)c1ccccc1 [Example J11.2, N-((1S)-2-((2S)-2-(5-(2-(2-((2S)-1-((2R)-2-(dimethyl-amino)-2-phenylacetyl)-2-pyrrolidinyl)-1H-benzimidazol-4-yl)-1,3-oxazol-5-yl)-1H-benzimidazol-2-yl)-1-pyrrolidinyl)-2-oxo-1-phenylethyl) acetamide] | < 4.57 nM
11 | COC(=O)N[C@@H](C(=O)N1CCC[C@H]1c1nc2cc(-c3cnc(-c4cccc5[nH]c([C@@H]6CCCN6C(=O)[C@@H](c6ccccc6)N6CCN(C)CC6)nc45)o3)ccc2[nH]1)c1ccccc1 [Example J29, methyl ((1R)-2-(((2S)-2-(5-(2-(2-((2S)-1-((2R)-2-(4-methyl-1-piperazinyl)-2-phenylacetyl)-2-pyrrolidinyl)-1H-benzimidazol-4-yl)-1,3-oxazol-5-yl)-1H-benzimidazol-2-yl)-1-pyrrolidinyl)-2-oxo-1-phenylethyl) carbamate] | < 4.57 nM
12 | O=C(c1cccs1)N1CCC[C@H]1c1nc2cc(C#Cc3ccc4nc([C@@H]5CCCN5C(=O)[C@H]5CCCO5)[nH]c4c3)ccc2[nH]1 [Example M54.4, 5-((2-((2S)-1-((2R)-tetrahydro-2-furanylcarbonyl)-2-pyrrolidinyl)-1H-benzimidazol-6-yl)ethynyl)-2-((2S)-1-(2-thienylcarbonyl)-2-pyrrolidinyl)-1H-benzimidazole] | < 4.57 nM
13 | COC(=O)N[C@H](C(=O)N1CCC[C@H]1c1nc2cc(-c3ccc(Oc4cccc5[nH]c([C@@H]6CCCN6C(=O)[C@@H](NC(=O)OC)C(C)C)nc45)cc3)ccc2[nH]1)C(C)C [Example V11, Methyl((1S)-1-(((2S)-2-(4-(4-(2-((2S)-1-((2S)-2-((methoxycarbonyl)amino)-3-methylbutanoyl)-2-pyrrolidinyl)-1H-benzimidazol-5-yl)phenoxy)-1H-benzimidazol-2-yl)-1-pyrrolidinyl)carbonyl)-2-methylpropyl)carbamate] | < 4.57 nM
14 | CN(C)[C@@H](C(=O)N1CCC[C@H]1c1nc2cc(-c3cnc(-c4cccc5[nH]c([C@@H]6CCCN6C(=O)[C@@H](c6ccccc6)N(C)C)nc45)o3)ccc2[nH]1)c1ccccc1 [Example J11, (1R)-2-((2S)-2-(4-(5-(2-((2S)-1-((2R)-2-(dimethyl-amino)-2-phenylacetyl)-2-pyrrolidinyl)-1H-benzimidazol-5-yl)-1,3-oxazol-2-yl)-1H-benzimidazol-2-yl)-1-pyrrolidinyl)-N,N-dimethyl-2-oxo-1-phenyl-ethanamine] | < 4.57 nM
15 | O=C(OCc1ccccc1)N1C[C@H](O)C[C@H]1c1nc2cc(C#Cc3ccc4[nH]c([C@@H]5C[C@@H](O)CN5C(=O)OCc5ccccc5)nc4c3)ccc2[nH]1 [Example F11] | < 4.57 nM
16 | O=C(Cc1ccccc1)N1CCC[C@H]1c1nc2cc(CCc3ccc4[nH]c([C@@H]5CCCN5C(=O)Cc5ccccc5)nc4c3)ccc2[nH]1 [Example M38] | < 4.57 nM
17 | COC(=O)N[C@@H](C)C(=O)N1CCC[C@H]1c1nc2cc(C#Cc3ccc4[nH]c([C@@H]5CCCN5C(=O)[C@H](C)NC(=O)OC)nc4c3)ccc2[nH]1 [Example M25, methyl ((1S)-2-((2S)-2-(5-((2-((2S)-1-(N-(methoxycarbonyl)-L-alanyl)-2-pyrrolidinyl)-1H-benzimidazol-5-yl)ethynyl)-1H-benzimidazol-2-yl)-1-pyrrolidinyl)-1-methyl-2-oxoethyl)carbamate] | 4.57 to 99 nM
18 | CC(=O)N[C@@H](C(=O)N1CCC[C@H]1c1nc2cc(-c3cnc(-c4ccc5nc([C@@H]6C[C@@H]7C[C@@H]7N6C(=O)[C@H](NC(C)=O)c6ccccc6)[nH]c5c4)o3)ccc2[nH]1)c1ccccc1 [Example J24, N-((1R)-2-((2S)-2-(5-(2-(2-((1S,3S,5S)-2-((2R)-2-acetamido-2-phenylacetyl)-2-azabicyclo[3. 1.0]hex-3-yl)-1H-benzimidazol-5-yl)-1,3-oxazol-5-yl)-1H-benzimidazol-2-yl)-1-pyrrolidinyl)-2-oxo-1-phenylethyl) acetamide] | < 4.57 nM
19 | O=C(C1CCOC1)N1CCC[C@H]1c1nc2cc(C#Cc3ccc4[nH]c([C@@H]5CCCN5C(=O)C5CCOC5)nc4c3)ccc2[nH]1 (stereo partly drawn) [Example M14, 5,5′-(1,2-ethynediyl)bis(2-((2S)-1-(tetrahydro-3-furanylcarbonyl)-2-pyrrolidinyl)-1H-benzimidazole)] | 4.57 to 99 nM
20 | CC(C)C(=O)N1CCC[C@H]1c1nc2cc(C#Cc3ccc4[nH]c([C@@H]5CCCN5C(=O)C(C)C)nc4c3)ccc2[nH]1 [Example M3, 5,5′-(1,2-ethynediyl)bis(2-((2S)-1-isobutyryl-2-pyrrolidinyl)-1H-benzimidazole)] | 4.57 to 99 nM
21 | O=C(Cc1ccccc1)N1C[C@H](O)C[C@H]1c1nc2cc(C#Cc3ccc4[nH]c([C@@H]5C[C@@H](O)CN5C(=O)Cc5ccccc5)nc4c3)ccc2[nH]1 [Example M37.1, (3R,5S,3′R,5′S)-5,5′-(1,2-ethynediylbis(1H-benzimidazole-5,2-diyl))bis(1-(phenylacetyl)-3-pyrrolidinol)] | < 4.57 nM
22 | O=C(Cc1cccs1)N1CCC[C@H]1c1nc2cc(C#Cc3ccc4nc([C@@H]5CCCN5C(=O)[C@H]5CCCO5)[nH]c4c3)ccc2[nH]1 [Example M50, 5-((2-((2S)-1-((2R)-tetrahydro-2-furanylcarbonyl)-2-pyrrolidinyl)-1H-benzimidazol-6-yl)ethynyl)-2-((2S)-1-(2-thienylacetyl)-2-pyrrolidinyl)-1H-benzimidazole] | < 4.57 nM

Same assay, conditions: Hepatitis C virus, HCV 1b genotype replicon; numeric values

Row | Structure (SMILES) | EC50
23 | CC(C)(C)OC(=O)N1CCN(C(=O)OCc2ccccc2)C(c2nc3cc(CCc4ccc5nc(C6CN(C(=O)OC(C)(C)C)CCN6C(=O)OCc6ccccc6)[nH]c5c4)ccc3[nH]2)C1 (stereo not drawn) [OL8, 1-benzyl 4-tert-butyl 2-(5-(2-(2-(1-((benzyloxy)carbonyl)-4-(tert-butoxycarbonyl)-2-piperazinyl)-1H-benzimidazol-6-yl)ethyl)-1H-benzimidazol-2-yl)-1,4-piperazinedicarboxylate] | 2880 nM
24 | COC(=O)N[C@@H](C(=O)N1CCC[C@H]1c1nc2c(-c3ncc(-c4ccc5[nH]c([C@@H]6CCCN6C(=O)[C@@H](c6ccccc6)N6CCN(C)CC6)nc5c4)o3)cccc2[nH]1)c1ccccc1 [Example J30, methyl ((1R)-2-((2S)-2-(4-(5-(2-((2S)-1-((2R)-2-(4-methyl-1-piperazinyl)-2-phenylacetyl)-2-pyrrolidinyl)-1H-benzimidazol-5-yl)-1,3-oxazol-2-yl)-1H-benzimidazol-2-yl)-1-pyrrolidinyl)-2-oxo-1-phenylethyl) carbamate] | 0.058 nM
